{"source": "patent US6423109B1", "about": "“Free flowing fertilizer composition with enhanced deposition/anti drift characteristics” (Adjuvants Unlimited Inc., priority 2000, dated 2002)", "experiment": "Gel formation (% +50 mesh gel bound)", "format": "physicochemical", "conditions": "tap water at 1% dilution"}
{"smiles": "N.N.O=S(=O)(O)O", "note": "[Ammonium Sulfate (AMS), Ammonium Sulfate]", "values": [{"measurement": "% +50 mesh gel bound", "value": 0, "unit": "%"}]}
